In patent publication US9701689B2, “Substituted pyridines and pyridazines as CCR10 receptor inhibitors” (KYOWA HAKKO KIRIN CO., LTD., priority 2012, dated 2017) one finds inhibition data, which are given here for 26 molecules.

The target of this assay is T1, human CCR10 (Homo sapiens, UniProt P46092).
T1 construct: expressed in transfected cells; host or cells: KJMGER8 cells (Namalwa cell-derived line), beta-estradiol-induced; hCCR10G16 cells
T1 sequence (P46092 1-362): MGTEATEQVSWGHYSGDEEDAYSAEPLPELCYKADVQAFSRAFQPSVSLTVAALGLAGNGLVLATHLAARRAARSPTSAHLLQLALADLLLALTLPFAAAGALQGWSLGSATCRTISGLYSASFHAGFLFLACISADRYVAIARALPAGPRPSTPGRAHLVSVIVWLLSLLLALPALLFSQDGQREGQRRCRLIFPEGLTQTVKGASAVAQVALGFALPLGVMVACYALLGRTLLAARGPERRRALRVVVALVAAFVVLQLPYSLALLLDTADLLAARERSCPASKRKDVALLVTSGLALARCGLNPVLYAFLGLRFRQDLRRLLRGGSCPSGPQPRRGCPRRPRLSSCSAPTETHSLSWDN
Put plainly: CCR10 antagonistic effect: calcium assay of human CCR10 (CTACK-induced increase of intracellular calcium in hCCR10G16 cells). The note with it: at a concentration of not more than 1000 nmol/L; human CCR10-expressing hCCR10G16 cells, 300 nmol/L CTACK added; read-out: inhibition of increase in the calcium ion concentration. It counts as cell-based. Summed up:
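KJMGER8-derived hCCR10G16 cells (CCR10 plus Gα16, induced 24 h with 10 nmol/L β-estradiol), Fluo-3 loaded, preincubated with compound 30 min at 37 °C. Stimulated with CTACK (300 nmol/L solution before addition); calcium read ~5 min by FDSS, max−min fluorescence; % inhibition vs control.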
(In general: Calcium flux is commonly read through the fluorescence of an indicator in the cells.)

Structures are written as SMILES.

Consider `NS(=O)(=O)c1ncc(C(=O)N2CCC(c3ccc(F)cc3)CC2)c(NCc2cccs2)c1Cl` [Compound 231, 3-chloro-5-[4-(4-fluorophenyl)piperidine-1-carbonyl]-4-(thiophen-2-ylmethylamino)pyridine-2-sulfonamide], for which the inhibition at up to 1 µM was at least 50%.

Take `COc1ccc(Nc2c(C(=O)N3CCC(c4ccc(F)cc4)CC3)cnc(S(=O)(=O)Nc3ccon3)c2C)c(C)c1` [Compound 234, 5-[4-(4-fluorophenyl)piperidine-1-carbonyl]-N-(isoxazol-3-yl)-4-(4-methoxy-2-methylphenylamino)-3-methylpyridine-2-sulfonamide]: the inhibition at up to 1 µM is at least 50%.

`Cc1ccc(Nc2c(C(=O)N3CCC(c4ccc(F)cc4)CC3)cnc(S(=O)(=O)Nc3ccon3)c2C)c(F)c1` [Compound 235, 4-(2-fluoro-4-methylphenylamino)-5-[4-(4-fluorophenyl)piperidine-1-carbonyl]-N-(isoxazol-3-yl)-3-methylpyridine-2-sulfonamide]: the inhibition at up to 1 µM was at least 50%.

For `NS(=O)(=O)c1ncc(C(=O)N2CCC(c3ccc(F)cc3)CC2)c(N[C@H]2C[C@H]3CC[C@@H]2C3)c1Cl` [Compound 236, 4-((1R,2S,4S)-bicyclo[2.2.1]heptan-2-ylamino)-3-chloro-5-[4-(4-fluorophenyl)piperidine-1-carbonyl]pyridine-2-sulfonamide], the inhibition at up to 1 µM was at least 50%.

Consider `NS(=O)(=O)c1ncc(C(=O)N2CCC(c3ccc(F)cc3)CC2)c(NC2CCc3ccccc32)c1Cl` (centres unmarked) [Compound 237, 3-chloro-4-(2,3-dihydro-1H-inden-1-ylamino)-5-[4-(4-fluorophenyl)piperidine-1-carbonyl]pyridine-2-sulfonamide], for which the inhibition at up to 1 µM is at least 50%.

On to `NS(=O)(=O)c1ncc(C(=O)N2CCC(c3ccc(F)cc3)CC2)c(Oc2cccc(F)c2)c1Cl` [Compound 238, 3-chloro-4-(3-fluorophenoxy)-5-[4-(4-fluorophenyl)piperidine-1-carbonyl]pyridine-2-sulfonamide], for which the inhibition at up to 1 µM is at least 50%.

Consider `CCc1ccccc1Nc1c(C(=O)N2CCC(c3ccc(F)cc3)CC2)cnc(S(=O)(=O)Nc2ccon2)c1C` [Compound 239, 4-(2-ethylphenylamino)-5-[4-(4-fluorophenyl)piperidine-1-carbonyl]-N-(isoxazol-3-yl)-3-methylpyridine-2-sulfonamide], for which the inhibition at up to 1 µM was at least 50%.

Take `Cc1cc(F)ccc1Nc1c(C(=O)N2CCC(c3ccc(F)cc3)CC2)nnc(S(N)(=O)=O)c1Cl` [Compound 240, 4-chloro-5-(4-fluoro-2-methylphenylamino)-6-[4-(4-fluorophenyl)piperidine-1-carbonyl]pyridazine-3-sulfonamide]: the inhibition at up to 1 µM was at least 50%.

Turning to `Cn1ncc2cc(Nc3c(C(=O)N4CCC(c5ccc(F)cc5)CC4)cnc(S(N)(=O)=O)c3Cl)ccc21` [Compound 242, 3-chloro-5-[4-(4-fluorophenyl)piperidine-1-carbonyl]-4-(1-methyl-1H-indazol-5-ylamino)pyridine-2-sulfonamide], the inhibition at up to 1 µM is at least 50%.

Turning to `NS(=O)(=O)c1ncc(C(=O)N2CCC(c3ccc(F)cc3)CC2)c(Nc2ccc3c(c2)CCC3=O)c1Cl` [Compound 243, 3-chloro-5-[4-(4-fluorophenyl)piperidine-1-carbonyl]-4-(1-oxo-2,3-dihydro-1H-inden-5-ylamino)pyridine-2-sulfonamide], the inhibition at up to 1 µM was at least 50%.

In the case of `Cc1c(S(=O)(=O)Nc2ccon2)ncc(C(=O)N2CCC(c3ccc(F)cc3)CC2)c1Nc1cccc(Cl)c1` [Compound 244, 4-(3-chlorophenylamino)-5-[4-(4-fluorophenyl)piperidine-1-carbonyl]-N-(isoxazol-3-yl)-3-methylpyridine-2-sulfonamide], the inhibition at up to 1 µM is at least 50%.

`Cc1nc(C(F)(F)F)ccc1Nc1c(C(=O)N2CCC(c3ccc(F)cc3)CC2)cnc(S(N)(=O)=O)c1C` [Compound 245, 5-[4-(4-fluorophenyl)piperidine-1-carbonyl]-3-methyl-4-[2-methyl-6-(trifluoromethyl)pyridin-3-ylamino]pyridine-2-sulfonamide]: the inhibition at up to 1 µM is at least 50%.

For the molecule `Cc1c(S(=O)(=O)Nc2ccon2)ncc(C(=O)N2CCC(c3ccc(F)cc3)CC2)c1Nc1cc(F)c(F)cc1F` [Compound 246, 5-[4-(4-fluorophenyl)piperidine-1-carbonyl]-N-(isoxazol-3-yl)-3-methyl-4-(2,4,5-trifluorophenylamino)pyridine-2-sulfonamide], the inhibition at up to 1 µM is at least 50%.

Regarding `Cc1c(S(=O)(=O)Nc2ccon2)ncc(C(=O)N2CCC(c3ccc(F)cc3)CC2)c1Nc1ccc2c(c1)COC2` [Compound 247, 4-(1,3-dihydroisobenzofuran-5-ylamino)-5-[4-(4-fluorophenyl)piperidine-1-carbonyl]-N-(isoxazol-3-yl)-3-methylpyridine-2-sulfonamide], the inhibition at up to 1 µM was at least 50%.

Consider `Cc1ncc(Cl)cc1Nc1c(C(=O)N2CCC(c3ccc(F)cc3)CC2)cnc(S(=O)(=O)Nc2ccon2)c1C` [Compound 248, 4-(5-chloro-2-methylpyridin-3-ylamino)-5-[4-(4-fluorophenyl)piperidine-1-carbonyl]-N-(isoxazol-3-yl)-3-methylpyridine-2-sulfonamide], for which the inhibition at up to 1 µM is at least 50%.

As for `Cc1cccc(Oc2c(C(=O)N3CCC(c4ccc(F)cc4)CC3)cnc(S(=O)(=O)Nc3ccon3)c2C)c1` [Compound 249, 5-[4-(4-fluorophenyl)piperidine-1-carbonyl]-N-(isoxazol-3-yl)-3-methyl-4-(m-tolyloxy)pyridine-2-sulfonamide], the inhibition at up to 1 µM was at least 50%.

In the case of `Cc1c(S(=O)(=O)Nc2ccn(C)n2)ncc(C(=O)N2CCC(c3ccc(F)cc3)CC2)c1NCc1ccccc1` [Compound 250, 4-(benzylamino)-5-[4-(4-fluorophenyl)piperidine-1-carbonyl]-3-methyl-N-(1-methyl-1H-pyrazol-3-yl)pyridine-2-sulfonamide], the inhibition at up to 1 µM is at least 50%.

On to `Cc1cc(NS(=O)(=O)c2ncc(C(=O)N3CCC(c4ccc(F)cc4)CC3)c(NCc3ccccc3)c2C)sn1` [Compound 251, 4-(benzylamino)-5-[4-(4-fluorophenyl)piperidine-1-carbonyl]-3-methyl-N-(3-methylisothiazol-5-yl)pyridine-2-sulfonamide], for which the inhibition at up to 1 µM was at least 50%.

In the case of `Cc1c(S(=O)(=O)Nc2ccon2)ncc(C(=O)N2CCC(c3ccc(F)cc3)CC2)c1Nc1cc(F)ccc1F` [Compound 252, 4-(2,5-difluorophenylamino)-5-[4-(4-fluorophenyl)piperidine-1-carbonyl]-N-(isoxazol-3-yl)-3-methylpyridine-2-sulfonamide], the inhibition at up to 1 µM was at least 50%.

Regarding `Cc1c(S(N)(=O)=O)ncc(C(=O)N2CCN(c3ccc(F)cc3)C(=O)C2)c1NCc1ccccc1` [Compound 253, 4-(benzylamino)-5-[4-(4-fluorophenyl)-3-oxopiperazine-1-carbonyl]-3-methylpyridine-2-sulfonamide], the inhibition at up to 1 µM is at least 50%.

With `Cc1c(S(=O)(=O)Nc2ccon2)ncc(C(=O)N2CCC(c3ccc(F)cc3)CC2)c1Nc1cccc(F)c1F` [Compound 254, 4-(2,3-difluorophenylamino)-5-[4-(4-fluorophenyl)piperidine-1-carbonyl]-N-(isoxazol-3-yl)-3-methylpyridine-2-sulfonamide], the inhibition at up to 1 µM is at least 50%.

As to `Cc1c(S(=O)(=O)Nc2ccon2)ncc(C(=O)N2CCC(c3ccc(F)cc3)CC2)c1Nc1ccccc1F` [Compound 255, 5-[4-(4-fluorophenyl)piperidine-1-carbonyl]-4-(2-fluorophenylamino)-N-(isoxazol-3-yl)-3-methylpyridine-2-sulfonamide], the inhibition at up to 1 µM was at least 50%.

As for `N#Cc1cc(OC(F)(F)F)ccc1Nc1c(C(=O)N2CCC(c3ccc(F)cc3)CC2)cnc(S(N)(=O)=O)c1Cl` [Compound 256, 3-chloro-4-[2-cyano-4-(trifluoromethoxy)phenylamino]-5-[4-(4-fluorophenyl)piperidine-1-carbonyl]pyridine-2-sulfonamide], the inhibition at up to 1 µM is at least 50%.

Turning to `N#Cc1ccc(C(F)(F)F)cc1Nc1c(C(=O)N2CCC(c3ccc(F)cc3)CC2)cnc(S(N)(=O)=O)c1Cl` [Compound 257, 3-chloro-4-[2-cyano-5-(trifluoromethyl)phenylamino]-5-[4-(4-fluorophenyl)piperidine-1-carbonyl]pyridine-2-sulfonamide], the inhibition at up to 1 µM was at least 50%.

For the molecule `Cc1c(S(=O)(=O)Nc2ccon2)ncc(C(=O)N2CCC(c3ccc(F)cc3)CC2)c1Nc1ccc(F)c(F)c1` [Compound 258, 4-(3,4-difluorophenylamino)-5-[4-(4-fluorophenyl)piperidine-1-carbonyl]-N-(isoxazol-3-yl)-3-methylpyridine-2-sulfonamide], the inhibition at up to 1 µM was at least 50%.

With `Cc1c(S(=O)(=O)Nc2ccon2)ncc(C(=O)N2CCC(c3ccc(F)cc3)CC2)c1Nc1ccc(Br)cc1` [Compound 260, 4-(4-bromophenylamino)-5-[4-(4-fluorophenyl)piperidine-1-carbonyl]-N-(isoxazol-3-yl)-3-methylpyridine-2-sulfonamide], the inhibition at up to 1 µM was at least 50%.
